Results as given in US20230201157A1, “COMPOSITIONS OF CANNABINOIDS AND METHODS OF USING SAME” (ASANA BIO GROUP LTD., priority 2020, published 2023).

What was measured:
RAW 264.7 cells [1] = test: Nitric oxide detection assay (Griess) in LPS-stimulated cells; assay type: cell-based, mouse; settings: for nitric oxide production: 50 µM of single cannabinoid (FIG. 1); for nitric oxide production while minimally affecting cell viability: lower dose, 25 µM, compared with effect at 50 µM (FIG. 1)
Procedure: (§1) Cell lines were cultured according to standard mammalian tissue culture protocols and sterile technique. Adherent human epithelial endometriosis 12Z and mouse monocytes RAW 264.7 cell lines were cultured in high glucose Dulbecco’s Modified Eagle Medium (DMEM) supplemented with 1% sodium pyruvate. Human monocytes THP-1 cell line were cultured in RPMI medium 1640. All media was supplemented with 10% fetal bovine serum, streptomycin […], penicillin (100 U/ml) and Nystatin (12.5 U/ml). Cells were incubated in 5% CO2 at 37° C. All tissue culture cells were maintained in 75 cm^2 cell culture treated flask (Eppendorf) and all the media and supplements were obtained from Biological Industries. Treatment were performed by plating cells in a 96 micro well delta surface plates (Eppendorf) in a starting confluence of 1 × 10^4 cells/well.
RAW 264.7 cells were seeded in a 96-well plate at a density of 1 × 10^4 cells/well (n=4) in 100 µl cell specific media (DMEM high glucose supplemented with 10% FBS, 1% PSN and 1% Sodium pyruvate). After 24 hours, cells were treated with varying concentrations of cannabis samples using specific media containing 5% FBS. After 1 hour, treated and untreated cells, were stimulated by Lipopolysaccharides (LPS) at a final concentration of 1 µg/ml. Cells supernatants were harvest after 24 h for nitric oxide radical (NO•) assay by addition of 50 µl of the supernatant to an equal volume of Griess reagent (1% sulfanilamide, 0.1% naphthalene diamine and 2% H3PO4). After 10 min of incubation, the resultant color was measured at 540 nm. Results were presented as proportional (%) by comparing between treated and untreated groups. Anti-inflammatory potential of an extract in preventing Nitric oxide production was determined by the ratio between nitric oxide and cell viability values: Ratio < 0.5 = High effect; Ratio between 0.5-0.7 = Moderate effect; Ratio […] = Low effect; and Ratio > 1 = No effect.

RAW 264.7 cells [2] = test: MTT viability assay; assay type: cell-based, mouse; settings: for cell viability: 50 µM of single cannabinoid (FIG. 1)
Procedure: as §1
The viability of the cells following treatment was determined using a commercially available MTT assay kit (Abcam, ab 146345) and performed according to manufacturer’s instructions. Briefly, cells were seeded in a 96-well plate at a density of 1 × 10^4 cells/well (n=4) in 100 µl cell specific media. After overnight plating, cells were exposed to varying concentrations of cannabis samples in 100 µl of specific media. Then, plates were incubated in a humidified atmosphere containing 5% CO2 in air at 37° C. for 24 hours. According to the MTT standard protocol, after 24 h treatment, the media was removed, and all cells were incubated with serum-free media containing 0.5 mg/ml MTT for 4 hours at the incubator. The MTT purple crystals formed by the viable cells were dissolved using isopropanol containing 0.04 mol/L HCl. The quantification was determined by measuring the optical density at 570 nm in a spectrophotometer reader (Spark, Tecan). Results were presented as proportional viability (%) by comparing between treated and untreated groups. Cytotoxic potential of an extract was determined according to the following criteria: Non-cytotoxic -Viability is ≥ 70% of vehicle control; Cytotoxic - Viability is reduced to less than 70% of vehicle control.

SMILES | nitric oxide production (RAW 264.7 cells [1]) | nitric oxide production while minimally affecting cell viability (RAW 264.7 cells [1]) | cell viability (RAW 264.7 cells [2]) | cell viability (exception to 'no substantial effect on cell viability') (RAW 264.7 cells [2]; mouse, 24 h, 50 µM)
CCCCCc1cc(O)c(C/C=C(\C)CCC=C(C)C)c(O)c1 [CBG, cannabigerol] | reduced nitric oxide production | – | – | –
CCCCCc1cc2c(c(O)c1C(=O)O)C=CC(C)(CCC=C(C)C)O2 (stereo not drawn) [CBCA, cannabichromenic acid] | reduced nitric oxide production | comparable effect | minimally affecting cell viability or not affecting cell viability at all | –
CCCc1cc2c(c(O)c1C(=O)O)[C@@H]1C=C(C)CC[C@H]1C(C)(C)O2 [THCVA, tetrahydrocannabivarinic acid] | reduced nitric oxide production | – | minimally affecting cell viability or not affecting cell viability at all | –
O=c1cc(-c2ccc(O)cc2)oc2cc(O)cc(O)c12 [Apigenin, apigenin] | – | – | – | excluding 50 µM of Apigenin
CCCCCc1cc(O)c2c(c1)OC(C)(CCC=C(C)C)C=C2 (stereo not drawn) [CBC, cannabichromene] | reduced nitric oxide production | – | minimally affecting cell viability or not affecting cell viability at all | –
CCCc1cc(O)c2c(c1)OC(C)(C)[C@@H]1CCC(C)=C[C@@H]21 [THCV, tetrahydrocannabivarin] | reduced nitric oxide production | – | minimally affecting cell viability or not affecting cell viability at all | –
CCCCCc1cc(O)c2c(c1)OC(C)(C)c1ccc(C)cc1-2 [CBN, cannabinol] | reduced nitric oxide production | – | minimally affecting cell viability or not affecting cell viability at all | –
CCCCCc1cc2c(c(O)c1C(=O)O)[C@@H]1C=C(C)CC[C@H]1C(C)(C)O2 [THCA, tetrahydrocannabinolic acid] | reduced nitric oxide production | – | minimally affecting cell viability or not affecting cell viability at all | –
CCCCCc1cc2c(c(O)c1C(=O)O)-c1cc(C)ccc1C(C)(C)O2 [CBNA, cannabinolic acid] | reduced nitric oxide production | comparable effect | minimally affecting cell viability or not affecting cell viability at all | –
